Paper PMC10683023, “Targeting Glial Cells by Organic Anion-Transporting Polypeptide 1C1 (OATP1C1)-Utilizing L-Thyroxine-Derived Prodrugs” (Journal of Medicinal Chemistry, 2023)

Legend:
OATP1C1 = target: T1, OATP1C1 (Homo sapiens, UniProt Q9NYB5); assay: Competitive uptake into U-87MG cells in the presence of OATP1C1 inhibitors diclofenac and flufenamic acid; assay type: cell-based; conditions: 100 μM prodrug; for Reduction of cellular uptake by DCF: 100 μM diclofenac; for Cellular uptake in the presence of OATP1C1 inhibitors (DCF and FFA): 100 μM inhibitor, result in words
T1 construct: human U-87MG cells that expressed OATP1C1, but not other OATPs; endogenous in cells; host or cells: U-87MG human glioma cells
T1 sequence (Q9NYB5 1-712): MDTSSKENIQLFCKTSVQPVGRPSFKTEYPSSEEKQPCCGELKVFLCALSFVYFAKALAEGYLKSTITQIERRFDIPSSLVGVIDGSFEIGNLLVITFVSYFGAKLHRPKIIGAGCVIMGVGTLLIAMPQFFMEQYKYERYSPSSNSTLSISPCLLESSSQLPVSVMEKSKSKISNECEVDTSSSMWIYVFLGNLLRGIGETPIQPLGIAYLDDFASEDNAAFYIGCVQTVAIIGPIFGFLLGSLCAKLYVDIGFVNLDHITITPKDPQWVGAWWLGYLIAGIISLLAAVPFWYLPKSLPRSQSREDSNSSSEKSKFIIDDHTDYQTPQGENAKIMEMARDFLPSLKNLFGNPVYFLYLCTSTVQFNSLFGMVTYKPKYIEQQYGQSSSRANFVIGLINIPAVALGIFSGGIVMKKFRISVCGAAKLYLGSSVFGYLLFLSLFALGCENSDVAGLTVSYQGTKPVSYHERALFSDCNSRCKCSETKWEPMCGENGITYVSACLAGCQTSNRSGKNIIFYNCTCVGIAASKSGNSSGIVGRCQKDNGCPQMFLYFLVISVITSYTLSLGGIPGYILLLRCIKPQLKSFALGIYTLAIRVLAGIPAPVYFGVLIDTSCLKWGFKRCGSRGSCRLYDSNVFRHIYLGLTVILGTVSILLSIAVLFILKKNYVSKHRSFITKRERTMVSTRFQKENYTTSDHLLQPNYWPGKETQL
Experimental: The competitive uptake in the presence of OATP-inhibitors or competing substrates (100 μM), diclofenac (DFC) and flufenamic acid (FFA), for OATP1C1 and naringin (NRG) for OATP1A2 was carried out as described above with HBSS buffer at pH 7.4 containing 100 μM of the studied compound. The cells were preincubated with the inhibitors for 10 min, and the incubation mixture was removed before adding the studied compound and the inhibitor to the cells. The competitive uptake (30 min) with the inhibitor was then carried out as the normal uptake described above. The concentrations of the studied compounds were analyzed by the HPLC methods described below, calculated from the spiked standard curve, and normalized with the protein concentrations.
(§1) The amount of prodrug 1–8 was determined by the HPLC system, which consisted of an Agilent 1100 binary pump (Agilent Technologies Inc., Wilmington, DE), an 1100 micro vacuum degasser, an HP 1050 Autosampler, and an HP 1050 variable wavelength detector, operated at 230–240 nm. The chromatographic separations were achieved on an Agilent Zorbax SB-C18 analytical column (4.4 mm × 150 mm, 5 μm) (Agilent Technologies Inc., Wilmington, DE) by using isocratic elution of water containing 0.1% formic acid (pH ca. 3.0) and acetonitrile containing 0.1% formic acid with ratios of 50:50, 30:70, 40:60, 50:50, 50:50, 40:60, 40:60, and 30:70 (v/v), respectively, for prodrug 1–8. […] The lower limit of quantification for prodrugs 1–8 was 0.20 μM. These HPLC methods were also accurate, precise, and selective over the range of 0.5–20 μM.

[1] = Enzymatic bioconversion in human liver S9 fraction; assay type: in vitro ADME; conditions: for Enzymatic stability, remaining percentage, human liver S9: after 5 h incubation, 100 μM prodrug
Experimental: The rates of bioactivation of the prodrugs 1–8 in mouse and human liver S9 fractions, as well as in mouse primary astrocyte–microglia homogenate, were determined at +37 °C. The incubation mixtures were prepared by mixing liver S9 subcellular fraction or brain cell homogenate (final protein concentration 1.0 mg/mL) with isotonic Tris–HCl buffer (pH 7.4) and 10 mM prodrug stock solution in DMSO (the initial concentration of prodrugs was 100 μM and the DMSO concentration was […]). The mixture was incubated for 5 h, and the samples ([…]) were withdrawn at appropriate intervals. The enzymatic reaction was terminated by the addition of ice-cold acetonitrile ([…]), and the samples were centrifuged for 5 min at 12 000 rpm at room temperature and kept on ice until the supernatants were analyzed by the HPLC method described below. In blank reactions, the S9 fractions were replaced with the same volume of buffer. The pseudo-first-order half-lives (t1/2) for the rates of bioconversion of the prodrugs were calculated from the slope of the linear portion of the plotted logarithm of the remaining prodrug concentration versus time. The rates of bioactivation of prodrugs 1–8 in human plasma and mouse serum were determined at 37 °C as above by adding 10 mM stock solution of the prodrug to plasma/serum in a ratio of 1:10 and analyzed similarly to the samples from S9 fractions.
as §1

| Reduction of cellular uptake by DCF (OATP1C1) | Cellular uptake in the presence of OATP1C1 inhibitors (DCF and FFA) (OATP1C1) | inhibition at 30 min, 100 μM (OATP1C1; human, pH 7.4, with flufenamic acid (FFA) 100 μM, 100 μM flufenamic acid, read-out: Inhibition of cellular uptake by FFA) [%] | Enzymatic stability, remaining percentage, human liver S9 ([1]; 37 °C, mean ± SD, n = 3) [%] | Bioconversion rate in human liver relative to the corresponding T4 derivative ([1]; DIT prodrug faster than T4 prodrug) [times] | half-life at 100 µM ([1]; human, pH 7.4, liver S9 fraction, 37 °C, mean ± SD, n = 3, read-out: Enzymatic bioconversion half-life t1/2, human liver) [h] | Bioconversion rate in human liver, slower than that of prodrug 6 [1] | Compound |
| --- | --- | --- | --- | --- | --- | --- | --- |
| – | not affected significantly | – | 96.84 ± 3.16 | – | – | – | N[C@@H](Cc1cc(I)c(OC(=O)c2ccccc2O)c(I)c1)C(=O)O [Prodrug 3, (S)-2-Amino-3-(4-((2-hydroxybenzoyl)oxy)-3,5-diiodophenyl)propanoic acid] |
| – | slightly increased | – | 84.00 ± 3.90 | – | – | – | N[C@@H](Cc1cc(I)c(Oc2cc(I)c(OC(=O)c3ccccc3O)c(I)c2)c(I)c1)C(=O)O [Prodrug 4, (S)-2-Amino-3-(4-(4-((2-hydroxybenzoyl)oxy)-3,5-diiodophenoxy)-3,5-diiodophenyl)propanoic acid] |
| 75% | affected by DCF but not by FFA | – | 78.70 ± 3.74 | – | – | – | COc1ccc2cc([C@H](C)C(=O)Oc3c(I)cc(Oc4c(I)cc(C[C@H](N)C(=O)O)cc4I)cc3I)ccc2c1 [Prodrug 6, (S)-2-Amino-3-(4-(3,5-diiodo-4-(((S)-2-(6-methoxynaphthalen-2-yl)propanoyl)oxy)phenoxy)-3,5-diiodophenyl)propanoic acid] |

The remaining lines, values behind:

| Compound | Reduction of cellular uptake by DCF (OATP1C1) | Cellular uptake in the presence of OATP1C1 inhibitors (DCF and FFA) (OATP1C1) | inhibition at 30 min, 100 μM (OATP1C1; human, pH 7.4, with flufenamic acid (FFA) 100 μM, 100 μM flufenamic acid, read-out: Inhibition of cellular uptake by FFA) [%] | Enzymatic stability, remaining percentage, human liver S9 ([1]; 37 °C, mean ± SD, n = 3) [%] | Bioconversion rate in human liver relative to the corresponding T4 derivative ([1]; DIT prodrug faster than T4 prodrug) [times] | half-life at 100 µM ([1]; human, pH 7.4, liver S9 fraction, 37 °C, mean ± SD, n = 3, read-out: Enzymatic bioconversion half-life t1/2, human liver) [h] | Bioconversion rate in human liver, slower than that of prodrug 6 [1] |
| --- | --- | --- | --- | --- | --- | --- | --- |
| CC(C(=O)Oc1c(I)cc(Oc2c(I)cc(C[C@H](N)C(=O)O)cc2I)cc1I)c1cccc(C(=O)c2ccccc2)c1 (mixture of isomers) [Prodrug 2, (2S)-2-Amino-3-(4-(4-((2-(3-benzoylphenyl)propanoyl)oxy)-3,5-diiodophenoxy)-3,5-diiodophenyl)propanoic acid] | ca. 56% | reduced more effectively compared to prodrug 1 | ~42 | 85.71 ± 4.27 | – | – | – |
| CC(C(=O)Oc1c(I)cc(C[C@H](N)C(=O)O)cc1I)c1ccc(-c2ccccc2)c(F)c1 (mixture of isomers) [Prodrug 7, (2S)-2-Amino-3-(4-((2-(2-fluoro-[1,1′-biphenyl]-4-yl)propanoyl)oxy)-3,5-diiodophenyl)propanoic acid] | – | significantly reduced | – | 30.54 ± 3.21 | ~2.5 | 2.91 ± 0.25 | – |
| CC(C(=O)Oc1c(I)cc(Oc2c(I)cc(C[C@H](N)C(=O)O)cc2I)cc1I)c1ccc(-c2ccccc2)c(F)c1 (mixture of isomers) [Prodrug 8, (2S)-2-Amino-3-(4-(4-((2-(2-fluoro-[1,1′-biphenyl]-4-yl)propanoyl)oxy)-3,5-diiodophenoxy)-3,5-diiodophenyl)propanoic acid] | – | significantly reduced | – | 80.17 ± 2.23 | – | – | – |
| COc1ccc2cc([C@H](C)C(=O)Oc3c(I)cc(C[C@H](N)C(=O)O)cc3I)ccc2c1 [Prodrug 5, (S)-2-Amino-3-(3,5-diiodo-4-(((S)-2-(6-methoxynaphthalen-2-yl)propanoyl)oxy)phenyl)propanoic acid] | 25% | affected by DCF but not by FFA | – | 69.44 ± 2.10 | – | – | around 10% |
